Laboratory results: article PMC7078782 (Drug Design, Development and Therapy, 2020)

Experiments:
Stock solution stability = type: physicochemical; settings: under the experimental conditions
[1] = Stability of QC samples in beagle plasma; type: in vitro ADME; settings: under the experimental conditions (room temperature, autosampler, freeze-thaw, −20°C)
[2] = cats; cited from earlier work
[3] = Pharmacokinetic study in beagles after intramuscular injection of parecoxib; settings: beagle, dog, plasma, im, 1.33 mg/kg, after intramuscular injection of 1.33 mg/kg parecoxib, n=6, mean ± SD
[4] = liver; cited from earlier work

Compound: Cc1ccc(-c2cc(C(F)(F)F)nn2-c2ccc(S(N)(=O)=O)cc2)cc1 [IS, Celecoxib]
- Stock solution stability (in words) (Stock solution stability): stabilized

Compound: CCC(=O)NS(=O)(=O)c1ccc(-c2c(-c3ccccc3)noc2C)cc1 [Parecoxib]
- Stability in beagle plasma (in words) [1]: stable
- t1/2 of conversion to valdecoxib and propionic acid [2]: about 24 mins
- Stock solution stability (in words) (Stock solution stability): stabilized

Compound: Cc1onc(-c2ccccc2)c1-c1ccc(S(N)(=O)=O)cc1 [Valdecoxib]
- Stability in beagle plasma (in words) [1]: stable
- Stock solution stability (in words) (Stock solution stability): stabilized
- Tmax ([3]; Tmax, beagle plasma): ~1.36 h
- half-life ([3]; t1/2, beagle plasma): ~2.27 h
- Share of elimination by sulfonamide glucose hydroformylation [4]: about 20%
